What was measured:
Assay type in all cases: cell-based
[1] = molecular target: T1, PocATP4 (PocATP4^OR line) (Plasmodium ovale, UniProt A0A1D3TM67); assay: growth inhibition of orthologue replacement parasite line, SYBR green I (whole-cell read-out); conditions: intact P. knowlesi parasites in erythrocytes, 27 h (one life cycle); not a direct enzyme assay
T1 construct: gene ATP4; full-length recodonized coding region replacing pkatp4 in P. knowlesi A1-H.1; untagged; intact parasites
T1 sequence (A0A1D3TM67 1-1433): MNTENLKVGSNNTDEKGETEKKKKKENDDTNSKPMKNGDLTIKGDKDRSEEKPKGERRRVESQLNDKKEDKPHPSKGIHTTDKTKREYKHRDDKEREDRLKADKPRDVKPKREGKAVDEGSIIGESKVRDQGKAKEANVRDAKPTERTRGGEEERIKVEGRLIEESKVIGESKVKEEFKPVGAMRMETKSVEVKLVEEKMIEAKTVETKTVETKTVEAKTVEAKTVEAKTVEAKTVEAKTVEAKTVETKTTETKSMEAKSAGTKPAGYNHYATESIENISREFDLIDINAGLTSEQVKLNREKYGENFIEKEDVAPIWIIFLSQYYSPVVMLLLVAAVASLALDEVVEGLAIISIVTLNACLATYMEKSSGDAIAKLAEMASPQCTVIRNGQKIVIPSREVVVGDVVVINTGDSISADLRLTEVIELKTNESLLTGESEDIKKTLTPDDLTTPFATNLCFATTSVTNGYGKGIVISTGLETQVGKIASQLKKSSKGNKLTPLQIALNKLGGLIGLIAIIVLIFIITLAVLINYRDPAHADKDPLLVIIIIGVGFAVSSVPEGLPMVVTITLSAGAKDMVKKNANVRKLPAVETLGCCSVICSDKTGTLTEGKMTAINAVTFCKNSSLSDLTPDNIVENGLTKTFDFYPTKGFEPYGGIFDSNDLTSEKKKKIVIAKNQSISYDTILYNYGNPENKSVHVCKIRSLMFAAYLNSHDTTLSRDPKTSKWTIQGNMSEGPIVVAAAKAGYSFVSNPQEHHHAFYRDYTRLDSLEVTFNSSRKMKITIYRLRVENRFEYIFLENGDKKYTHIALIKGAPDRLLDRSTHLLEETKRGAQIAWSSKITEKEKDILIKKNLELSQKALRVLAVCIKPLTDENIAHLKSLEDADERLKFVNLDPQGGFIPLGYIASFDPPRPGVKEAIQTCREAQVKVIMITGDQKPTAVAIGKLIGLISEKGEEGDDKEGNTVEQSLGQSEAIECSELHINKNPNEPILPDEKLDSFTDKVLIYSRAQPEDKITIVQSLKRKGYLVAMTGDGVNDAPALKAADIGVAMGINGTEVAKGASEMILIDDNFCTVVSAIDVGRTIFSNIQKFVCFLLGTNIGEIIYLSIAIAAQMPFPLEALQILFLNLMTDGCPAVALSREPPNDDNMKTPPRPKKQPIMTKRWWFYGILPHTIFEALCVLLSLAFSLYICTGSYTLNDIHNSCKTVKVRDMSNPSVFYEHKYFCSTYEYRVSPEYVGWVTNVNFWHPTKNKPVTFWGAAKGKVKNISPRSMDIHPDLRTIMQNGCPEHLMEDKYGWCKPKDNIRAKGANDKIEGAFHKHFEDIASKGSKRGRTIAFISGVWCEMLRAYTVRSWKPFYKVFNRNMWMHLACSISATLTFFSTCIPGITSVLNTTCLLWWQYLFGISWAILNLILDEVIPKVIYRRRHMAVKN
Source text: growth inhibition of orthologue replacement parasite line, SYBR green I (whole-cell read-out) on PocATP4 (PocATP4^OR line)

PmATP4 (PmATP4^OR line) [2] = molecular target: T2, PmATP4 (PmATP4^OR line) (Plasmodium malariae, UniProt A0A1A8WBD6); assay: SBFI fluorescence of intracellular Na+ in saponin-isolated trophozoites; conditions: 0.1 µM, physiological saline, pH 7.1, 37°C
T2 construct: gene ATP4; full-length recodonized coding region replacing pkatp4 in P. knowlesi A1-H.1; untagged; intact parasites
T2 sequence (A0A1A8WBD6 1-1380): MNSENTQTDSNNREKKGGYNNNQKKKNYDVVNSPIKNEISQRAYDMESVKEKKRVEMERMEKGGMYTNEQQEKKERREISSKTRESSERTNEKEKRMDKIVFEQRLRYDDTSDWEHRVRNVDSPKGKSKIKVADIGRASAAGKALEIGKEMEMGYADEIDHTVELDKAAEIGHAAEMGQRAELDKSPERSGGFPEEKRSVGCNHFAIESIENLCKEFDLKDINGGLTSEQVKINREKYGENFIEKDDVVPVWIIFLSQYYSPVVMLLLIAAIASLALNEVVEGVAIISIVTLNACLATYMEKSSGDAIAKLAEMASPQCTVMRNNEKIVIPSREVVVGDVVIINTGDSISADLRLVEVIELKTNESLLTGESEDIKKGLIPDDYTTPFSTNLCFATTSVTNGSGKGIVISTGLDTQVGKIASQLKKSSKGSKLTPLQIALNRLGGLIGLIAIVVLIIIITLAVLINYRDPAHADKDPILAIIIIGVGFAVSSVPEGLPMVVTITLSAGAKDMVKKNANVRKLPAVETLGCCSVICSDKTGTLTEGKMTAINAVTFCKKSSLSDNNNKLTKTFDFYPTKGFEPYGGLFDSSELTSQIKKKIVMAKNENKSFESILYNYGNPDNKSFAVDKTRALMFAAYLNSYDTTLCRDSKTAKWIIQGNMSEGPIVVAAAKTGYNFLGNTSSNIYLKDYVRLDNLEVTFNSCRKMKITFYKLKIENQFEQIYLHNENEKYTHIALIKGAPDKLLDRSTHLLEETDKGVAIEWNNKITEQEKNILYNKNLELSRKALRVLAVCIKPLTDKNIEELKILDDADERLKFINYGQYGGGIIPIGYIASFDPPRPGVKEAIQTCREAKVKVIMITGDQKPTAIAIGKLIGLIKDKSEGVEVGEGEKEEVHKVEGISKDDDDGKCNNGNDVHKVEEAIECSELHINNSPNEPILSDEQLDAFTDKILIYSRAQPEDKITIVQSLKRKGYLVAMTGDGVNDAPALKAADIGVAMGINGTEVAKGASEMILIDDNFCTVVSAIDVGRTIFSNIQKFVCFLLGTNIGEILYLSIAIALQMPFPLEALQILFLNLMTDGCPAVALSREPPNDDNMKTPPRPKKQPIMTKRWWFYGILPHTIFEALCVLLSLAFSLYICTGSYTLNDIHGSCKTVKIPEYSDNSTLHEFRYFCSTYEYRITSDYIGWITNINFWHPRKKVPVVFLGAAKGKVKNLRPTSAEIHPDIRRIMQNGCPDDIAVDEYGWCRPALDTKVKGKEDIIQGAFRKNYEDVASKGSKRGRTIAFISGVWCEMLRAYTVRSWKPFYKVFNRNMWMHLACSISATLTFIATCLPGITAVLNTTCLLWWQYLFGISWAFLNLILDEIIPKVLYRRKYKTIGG
Source text: SBFI fluorescence of intracellular Na+ in saponin-isolated trophozoites on PmATP4 (PmATP4^OR line)

PvATP4 (PvATP4^OR line) [3] = molecular target: T3, PvATP4 (PvATP4^OR line) (Plasmodium vivax, UniProt A5K0L8); assay: as above; conditions: 0.1 µM, physiological saline, pH 7.1, 37°C
T3 construct: gene PVX_084625; full-length recodonized coding region replacing pkatp4 in P. knowlesi A1-H.1; untagged; intact parasites
Source text: SBFI fluorescence of intracellular Na+ in saponin-isolated trophozoites on PvATP4 (PvATP4^OR line)

PkATP4 (PkATP4^OR line) [4] = molecular target: T4, PkATP4 (PkATP4^OR line) (Plasmodium knowlesi, UniProt A0A384LKC1); assay: growth inhibition of orthologue replacement parasite line, SYBR green I (whole-cell read-out); conditions: intact P. knowlesi parasites in erythrocytes, 27 h (one life cycle); not a direct enzyme assay
T4 construct: gene PKNH_1312000; untagged; intact parasites
T4 sequence (A0A384LKC1 1-1293): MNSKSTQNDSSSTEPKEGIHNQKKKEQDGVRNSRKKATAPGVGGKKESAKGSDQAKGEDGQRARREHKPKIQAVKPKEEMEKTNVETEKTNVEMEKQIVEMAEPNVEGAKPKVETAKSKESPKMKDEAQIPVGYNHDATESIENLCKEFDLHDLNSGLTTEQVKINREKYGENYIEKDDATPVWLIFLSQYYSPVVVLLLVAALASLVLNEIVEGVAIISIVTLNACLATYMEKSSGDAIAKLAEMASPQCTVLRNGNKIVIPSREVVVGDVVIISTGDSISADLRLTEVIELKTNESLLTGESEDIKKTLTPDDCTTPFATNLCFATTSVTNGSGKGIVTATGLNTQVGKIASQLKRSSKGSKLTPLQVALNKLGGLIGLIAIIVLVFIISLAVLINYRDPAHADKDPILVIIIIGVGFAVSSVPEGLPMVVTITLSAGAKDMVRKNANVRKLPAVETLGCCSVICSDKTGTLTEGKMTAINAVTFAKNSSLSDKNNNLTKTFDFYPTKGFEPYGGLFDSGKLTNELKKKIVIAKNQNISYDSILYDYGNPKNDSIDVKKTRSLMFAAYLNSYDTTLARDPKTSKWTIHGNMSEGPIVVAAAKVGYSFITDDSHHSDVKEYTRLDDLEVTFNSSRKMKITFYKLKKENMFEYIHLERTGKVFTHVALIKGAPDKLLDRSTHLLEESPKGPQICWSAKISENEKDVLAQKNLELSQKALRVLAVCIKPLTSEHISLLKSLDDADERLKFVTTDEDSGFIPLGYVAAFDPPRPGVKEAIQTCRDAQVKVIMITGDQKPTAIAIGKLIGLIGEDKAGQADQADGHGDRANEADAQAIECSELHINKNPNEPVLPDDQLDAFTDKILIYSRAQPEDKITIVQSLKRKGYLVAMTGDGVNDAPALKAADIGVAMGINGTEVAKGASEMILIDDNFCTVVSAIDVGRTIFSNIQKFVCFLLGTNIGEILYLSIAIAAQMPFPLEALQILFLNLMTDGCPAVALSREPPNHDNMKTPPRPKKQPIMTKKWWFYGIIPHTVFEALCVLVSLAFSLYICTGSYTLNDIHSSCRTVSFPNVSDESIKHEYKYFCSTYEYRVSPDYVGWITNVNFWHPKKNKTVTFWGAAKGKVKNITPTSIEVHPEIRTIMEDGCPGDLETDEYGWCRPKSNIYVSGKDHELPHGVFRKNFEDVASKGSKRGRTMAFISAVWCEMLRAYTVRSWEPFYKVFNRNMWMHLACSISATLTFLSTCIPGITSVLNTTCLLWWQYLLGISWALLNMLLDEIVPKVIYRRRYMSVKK
Source text: growth inhibition of orthologue replacement parasite line, SYBR green I (whole-cell read-out) on PkATP4 (PkATP4^OR line)

PfATP4 (PfATP4^OR line) [5] = molecular target: T5, PfATP4 (PfATP4^OR line) (Plasmodium falciparum, UniProt A0A143ZZK9); assay: SBFI fluorescence of intracellular Na+ in saponin-isolated trophozoites; conditions: 0.1 µM, physiological saline, pH 7.1, 37°C
T5 construct: gene ATP4; full-length recodonized coding region replacing pkatp4 in P. knowlesi A1-H.1; untagged; intact parasites
T5 sequence (A0A143ZZK9 whole entry): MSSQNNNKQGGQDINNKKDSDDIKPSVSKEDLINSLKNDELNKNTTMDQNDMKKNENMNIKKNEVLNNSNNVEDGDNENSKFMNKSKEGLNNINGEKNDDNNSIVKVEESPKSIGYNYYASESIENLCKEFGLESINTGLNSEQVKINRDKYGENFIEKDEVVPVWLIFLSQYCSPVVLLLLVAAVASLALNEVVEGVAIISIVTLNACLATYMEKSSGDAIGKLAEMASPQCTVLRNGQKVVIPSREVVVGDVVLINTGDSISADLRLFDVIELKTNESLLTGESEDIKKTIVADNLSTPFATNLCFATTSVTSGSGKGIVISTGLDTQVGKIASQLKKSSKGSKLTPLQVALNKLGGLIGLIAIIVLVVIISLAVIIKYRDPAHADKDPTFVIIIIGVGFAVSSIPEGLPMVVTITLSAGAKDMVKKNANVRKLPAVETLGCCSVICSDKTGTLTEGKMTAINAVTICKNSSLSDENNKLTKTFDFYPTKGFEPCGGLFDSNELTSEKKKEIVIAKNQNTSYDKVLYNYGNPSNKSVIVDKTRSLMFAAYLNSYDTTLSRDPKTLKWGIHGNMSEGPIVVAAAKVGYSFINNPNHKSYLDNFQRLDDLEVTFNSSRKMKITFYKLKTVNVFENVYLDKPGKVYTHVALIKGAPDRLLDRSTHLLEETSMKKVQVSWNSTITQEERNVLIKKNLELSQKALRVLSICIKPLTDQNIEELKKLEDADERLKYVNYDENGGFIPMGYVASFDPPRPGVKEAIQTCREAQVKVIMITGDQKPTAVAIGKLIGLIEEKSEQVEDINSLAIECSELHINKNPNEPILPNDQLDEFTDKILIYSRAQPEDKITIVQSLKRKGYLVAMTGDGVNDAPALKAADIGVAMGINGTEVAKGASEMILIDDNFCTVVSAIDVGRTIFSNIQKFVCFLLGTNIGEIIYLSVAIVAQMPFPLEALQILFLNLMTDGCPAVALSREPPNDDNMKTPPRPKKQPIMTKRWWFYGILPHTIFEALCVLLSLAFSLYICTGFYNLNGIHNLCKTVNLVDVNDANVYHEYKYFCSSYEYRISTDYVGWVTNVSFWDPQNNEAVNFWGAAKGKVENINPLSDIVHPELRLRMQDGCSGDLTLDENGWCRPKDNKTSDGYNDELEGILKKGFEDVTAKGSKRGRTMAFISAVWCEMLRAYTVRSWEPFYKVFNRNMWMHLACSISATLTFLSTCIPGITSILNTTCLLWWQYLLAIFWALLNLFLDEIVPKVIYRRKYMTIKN
Source text: SBFI fluorescence of intracellular Na+ in saponin-isolated trophozoites on PfATP4 (PfATP4^OR line)

PkATP4 (PkATP4^OR line) [6] = molecular target: T4, PkATP4 (PkATP4^OR line); assay: as above; conditions: 0.1 µM, physiological saline, pH 7.1, 37°C
Source text: SBFI fluorescence of intracellular Na+ in saponin-isolated trophozoites on PkATP4 (PkATP4^OR line)

PvATP4 (PvATP4^OR line) [7] = molecular target: T3, PvATP4 (PvATP4^OR line); assay: growth inhibition of orthologue replacement parasite line, SYBR green I (whole-cell read-out); conditions: intact P. knowlesi parasites in erythrocytes, 27 h (one life cycle); not a direct enzyme assay
Source text: growth inhibition of orthologue replacement parasite line, SYBR green I (whole-cell read-out) on PvATP4 (PvATP4^OR line)

[8] = molecular target: T1, PocATP4 (PocATP4^OR line); assay: SBFI fluorescence of intracellular Na+ in saponin-isolated trophozoites; conditions: 0.1 µM, physiological saline, pH 7.1, 37°C
Source text: SBFI fluorescence of intracellular Na+ in saponin-isolated trophozoites on PocATP4 (PocATP4^OR line)

PfATP4 (PfATP4^OR line) [9] = molecular target: T5, PfATP4 (PfATP4^OR line); assay: growth inhibition of orthologue replacement parasite line, SYBR green I (whole-cell read-out); conditions: intact P. knowlesi parasites in erythrocytes, 27 h (one life cycle); not a direct enzyme assay
Source text: growth inhibition of orthologue replacement parasite line, SYBR green I (whole-cell read-out) on PfATP4 (PfATP4^OR line)

PmATP4 (PmATP4^OR line) [10] = molecular target: T2, PmATP4 (PmATP4^OR line); assay: as above; conditions: intact P. knowlesi parasites in erythrocytes, 27 h (one life cycle); not a direct enzyme assay
Source text: growth inhibition of orthologue replacement parasite line, SYBR green I (whole-cell read-out) on PmATP4 (PmATP4^OR line)

SMILES: C[C@H]1Cc2c([nH]c3cc(Cl)c(F)cc23)[C@@]2(N1)C(=O)Nc1ccc(Cl)cc12 [cipargamin]
- EC50, nM (P value) / Cipargamin [1]: 34.1 ± 1.6 nM
- Rate of increase in [Na^+]i 10 min after cipargamin exposure, μM/s (P value) (PmATP4 (PmATP4^OR line) [2]): 35.7 ± 8.07 µM/s
- Rate of increase in [Na^+]i 10 min after cipargamin exposure, μM/s (P value) (PvATP4 (PvATP4^OR line) [3]): 96.6 ± 47.3 µM/s
- EC50, nM (P value) / Cipargamin (PkATP4 (PkATP4^OR line) [4]): 13.5 ± 2.4 nM
- Rate of increase in [Na^+]i 10 min after cipargamin exposure, μM/s (P value) (PfATP4 (PfATP4^OR line) [5]): 203.2 ± 54.1 µM/s
- Rate of increase in [Na^+]i 10 min after cipargamin exposure, μM/s (P value) (PkATP4 (PkATP4^OR line) [6]): 35.8 ± 9.98 µM/s
- EC50, nM (P value) / Cipargamin (PvATP4 (PvATP4^OR line) [7]): 22.9 ± 4.2 nM
- Rate of increase in [Na^+]i 10 min after cipargamin exposure, μM/s (P value) [8]: 41.5 ± 8.85 µM/s
- EC50, nM (P value) / Cipargamin (PfATP4 (PfATP4^OR line) [9]): 1.62 ± 0.37 nM
- EC50, nM (P value) / Cipargamin (PmATP4 (PmATP4^OR line) [10]): 9.44 ± 2.0 nM

Source: paper PMC9600963, “Cation ATPase (ATP4) Orthologue Replacement in the Malaria Parasite Plasmodium knowlesi Reveals Species-Specific Responses to ATP4-Targeting Drugs” (mBio, 2022)
